The target of data set [1] is T1, recombinant human β tryptase (Homo sapiens, UniProt Q15661).
T1 construct: host or cells: yeast cells
Briefly: β-Tryptase inhibitory potency, chromogenic enzyme assay (S2366 substrate). Format: biochemical. As for the experimental part:
Tryptase inhibition activity is confirmed using either isolated human lung tryptase or recombinant human β tryptase expressed in yeast cells. Essentially equivalent results are obtained using isolated native enzyme or the expressed enzyme. The assay procedure employs a 96 well microplate (Costar 3590) using L-pyroglutamyl-L-prolyl-L-arginine-para-nitroanilide (S2366: Quadratech) as substrate (essentially as described by McEuen et. al. Biochem Pharm, 1996, 52, pages 331-340). Assays are performed at room temperature using 0.5mM substrate (2×Km) and the microplate is read on a microplate reader (Beckman Biomek Plate reader) at 405 nm wavelength.
Materials and Methods for Tryptase Primary Screen (Chromogenic assay)
• S2366 (Stock solutions of 2.5 mM).
• Purified recombinant beta Tryptase Stocks of 310 μg/mL. Protocol (Single Point Determination) • Add 60 μL of diluted substrate (final concentration of 500 μM in assay buffer) to each well • Add compound in duplicates, final concentration of 20 μM, volume 20 μL • Add enzyme at a final concentration of 50 ng/mL in a volume of 20 μL • Total volume for each well is 100 μL • Agitate briefly to mix and incubate at room temp in the dark for 30 minutes • Read absorbencies at […]

Data set [2] has as its system Airway Hyperresponsiveness (AHR) to histamine in sensitized guinea pigs. Briefly: Guinea pig model of airway hyperreactivity (AHR to histamine after ovalbumin sensitization and challenge). Format: in vivo. As for the experimental part: Sensitization and drug treatment: Male Hartley guinea pigs (225-250 g) are sensitized with ovalbumin (0.5 mL of 1% solution, i.p. and s.c.). On day 4, animals received a booster injection (i.p.) of 0.5 mL of 1% ovalbumin. On day 21, animals are orally dosed (2mL/kg) with either vehicle (0.5% methylcellulose/0.2% Tween 80) or test compound 2 hours prior to antigen challenge. Thirty minutes before antigen challenge the animals are also injected with mepyramine (30 mg/kg, i.p.) to prevent anaphylactic collapse. Animals are then exposed for 5 minutes to an aerosol of either saline (control animals) or 1% ovalbumin using a deVilbiss Ultraneb nebulizer.
AHR measurement: Eighteen to twenty four hours after challenge, animals are anesthetized with a combination of ketamine (133 mg/kg) and xylazine (24 mg/kg) given intramuscularly, surgically prepared and then mounted in a whole body plethysmograph for lung function measurement. Animals are connected to Ugo-Basile ventilators delivering a tidal volume of 1 mL/100 g at a rate of 50 breaths/minute via a tracheal cannula. The jugular vein is also cannulated for histamine challenge. A water filled esophageal cannula is placed such that transpulmonary pressure is recordable. Transpulmonary pressure is measured as the difference between the tracheal and esophageal cannulas using a differential pressure transducer. The volume, airflow, and transpulmonary pressure signals are monitored using a pulmonary analysis system (Buxco XA software) and used to calculate pulmonary resistance (cm H2O/mL/s) and dynamic compliance (mL/cm H2O). Airway resistance and dynamic compliance are computed on a breath by breath basis. Histamine is administered intravenously and reactivity to increasing concentrations (0.3-20 μg/kg) assessed. ED50's are estimated from the area under the curve (AUC) values derived from the individual histamine dose-response curves.

Data set [3] in a line: Plasma, lung and BAL drug levels in guinea pigs. The data set is classed as in vivo, guinea pig. Here is the method:
Plasma and Lung Drug Levels Plasma and lung compound levels are determined in satellite groups. Three to four guinea pigs from each of the experimental-drug treatment groups are used for the determination of drug levels. At the indicated time point, (either 2- or 24 hours after dosing), animals are euthanized, and 1 mL blood samples are obtained by cardiac puncture and collected into heparin-coated syringes containing 20 μL (per 1 mL of blood) of a 5 mM hydralazine solution. Plasma is separated from the cellular component of the blood by centrifugation, and stored at −20° C. until assayed. Lung samples are dissected free of connective tissues, blotted dry, weighed and stored in 20 mL vials containing 5 mL of a 5 mM hydralazine solution in saline. The frozen plasma samples are then transferred on dry ice to the Pilot PK group for compound levels determination.

Setting [4] is: oral route, sensitized guinea pigs.
[5] abbreviates: 2 hours after dosing, 1 mg/kg, p.o.

Structures can show the parent of a compound that is named as a salt.

T1 sequence (Q15661 31-275): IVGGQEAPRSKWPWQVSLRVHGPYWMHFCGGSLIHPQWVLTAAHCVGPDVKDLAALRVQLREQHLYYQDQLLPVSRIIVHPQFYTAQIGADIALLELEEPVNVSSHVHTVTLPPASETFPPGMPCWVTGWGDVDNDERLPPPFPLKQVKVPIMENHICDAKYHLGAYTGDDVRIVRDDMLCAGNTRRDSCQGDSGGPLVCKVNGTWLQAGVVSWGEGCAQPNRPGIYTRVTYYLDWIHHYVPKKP

Consider `CCCOc1sc(C(=O)N2CCC(c3cc(CN)ccc3F)CC2)c(C)c1Br` [Compound I, [4-(5-aminomethyl-2-fluoro-phenyl)-piperidin-1-yl]-(4-bromo-3-methyl-5-propoxy-thiophen-2-yl)-methanone hydrochloride], for which the IC50 in data set [1] (0.5 mM substrate S2366 (2×Km), room temperature) is 76 nM. In addition, in data set [1] (calculated from IC50: Ki=IC50/(1+[Substrate]/Km)), the Ki is 15 nM. Moreover, the ED50 in data set [2] (Cavia porcellus, dosed 24 hours prior to antigen challenge, read-out: average ED50, duration of action) was 0.4 mg/kg. Further, the “ED50, protection against antigen-stimulated AHR to histamine, as measured by airway resistance and dynamic lung compliance” value in data set [2] (oral dosing 2 hours prior to ovalbumin challenge) worked out at 0.1 mg/kg. Moreover, in data set [2] (setting [4]), the “effect on basal airway resistance” value is “no effect” and the “effect on basal dynamic lung compliance” value was “no effect”. Further, in data set [3] (setting [5]), the “compound level in lung” value is recorded as “appreciable amount” and the “compound level in plasma” value is recorded as “detected at a much lower level”. Besides, the “compound level in bronchoalveolar lavage fluid (BAL)” value in data set [3] (2 hours after dosing, 1 mg/kg, p.o., not taking into account dilution factor for BAL) is reported as “appreciable amount”. In addition, in data set [3] (24 hours after dosing), the “compound level in lung” value was “dose-dependent appreciable amount” and the “compound level in plasma” value is recorded as “no plasma could be detected”.

By IC50 is commonly meant the point on the concentration scale where inhibition reaches its midpoint. A word on the Ki: it is a measure of affinity in units of concentration, obtained from inhibition or displacement.

The record behind these values is patent publication US7482459B2, “[4-(5-aminomethyl-2-fluoro-phenyl)-piperidin-1-yl]-(4-bromo-3-methyl-5-propoxy-thiophen-2-yl)-methanone hydrochloride as an inhibitor of mast cell tryptase” (Aventis Pharmaceuticals Inc., priority 2004, dated 2009).
